Assay results published in patent US5447944A, “Carbamoyl-2-pyrrolidinone compounds” (Taiho Pharmaceutical Company, Limited, priority 1988, dated 1995).
Like-named read-outs stand apart in the source and are kept apart here.

Key:
[1] = Antianoxic activity test (Test Example 2): effect on the survival time under low-oxygen load at atmospheric pressure; type: in vivo, mice (ddY, five-week-old males); settings: read-out: Antianoxia activity [increase ratio (%) of the survival time]
Excerpt: Antianoxic activity test (effect on the survival time under low-oxygen load at atmospheric pressure)
Groups of 10 mice (ddY, five-week-old males) were used for the experiment with reference to Japan Journal of Pharmacology, 81, 421~429 (1983), same, 86, 323~328 (1985) and same, 89, 355~363 (1987). The test compound was orally given to the mouse as dissolved or suspended in 0.5% solution of sodium carboxymethyl cellulose, the mouse was placed into a transparent plastics container (13×13×16 cm) having a vent, and a gas mixture of 96% nitrogen and 4% oxygen was passed through the container at a rate of 5 liters/min.

[2] = Reversal activity of amnesia (Test Example 1): scopolamine-induced amnesia, step-through passive avoidance, antiamnesia effect; type: in vivo, rats (Wistar, males); settings: read-out: Antiamnesia effect [increase ratio (%) of the step-through latency]; for change in vivo at 10 mg/kg: 10 mg/kg oral
Method: Reversal activity of amnesia
Groups of 6 to 16 rats (Wistar, males, weighing 170 to 240 g) were used for the experiment.
Scopolamine was used as dissolved in physiological saline, and the test compound as dissolved or suspended in 0.5% solution of sodium carboxymethyl cellulose.
Scopolamine was subcutaneously given at a dose of 0.5 mg/kg 30 minutes before aquisition trials. The test compound was orally given immediately after the aquisition trials.
The rat was subjected to habituation trials about 1 hour before aquisition trials. The habituation was accomplished by placing the rat into the light compartment, opening the door 5 seconds thereafter, closing the door when the four legs completely entered the dark compartment, leaving the rat in the dark compartment for 10 seconds and thereafter taking out the rat. The acquisition trial was accomplished in the same manner as the habituation 1 hour thereafter except that simultaneously when the door was closed upon the movement of the rat into the dark compartment, an unescapable foot shock of 4.5 mA was given to the rat by the floor grit for 1 second.
A retention test was conducted 24 hours after the aquisition trials to measure the step-through latency during which the rat placed into the light compartment remained therein before moving into the dark compartment, i.e., the duration of a passive avoidance reaction.

[3] = Acute toxicity test (Test Example 3); settings: mouse, in vivo
Method: Mice (ddY, five-week-old males) were used in groups of 4 to 5 mice each. The test compound was dissolved or suspended in 0.5% solution of sodium carboxymethyl cellulose and administered orally. […] Many of the test compounds produced symptoms of sedation or mascular relaxation for 30 minutes to 6 hours, followed by gradual recovery. The original state was restored two days later.

[4] = 30 mg/kg oral, mouse, 96% nitrogen and 4% oxygen, vs control group
[5] = 100 mg/kg oral, mouse, 96% nitrogen and 4% oxygen, vs control group
[6] = 300 mg/kg oral, mouse, 96% nitrogen and 4% oxygen, vs control group
[7] = rat, retention test 24 hours after acquisition, scopolamine 0.5 mg/kg s.c., vs control group
[8] = 30 mg/kg oral, rat, retention test 24 hours after acquisition, scopolamine 0.5 mg/kg s.c., vs control group
[9] = 100 mg/kg oral, rat, retention test 24 hours after acquisition, scopolamine 0.5 mg/kg s.c., vs control group
[10] = 300 mg/kg oral, rat, retention test 24 hours after acquisition, scopolamine 0.5 mg/kg s.c., vs control group

Row | Compound | ILS at 30 mg/kg ([1]; Mus musculus, po) [%] | ILS at 100 mg/kg ([1]; Mus musculus, po) [%] | ILS at 300 mg/kg ([1]; Mus musculus, po) [%] | change in vivo at 30 mg/kg ([2]; Rattus norvegicus, po, 24 h) [%] | change in vivo at 100 mg/kg ([2]; Rattus norvegicus, po, 24 h) [%] | change in vivo at 300 mg/kg ([2]; Rattus norvegicus, po, 24 h) [%] | ILS at 30 mg/kg [1, 4] [%] | ILS at 100 mg/kg [1, 5] [%] | ILS at 300 mg/kg [1, 6] [%] | LD50 at 72 h ([3]; po) [mg/kg] | change in vivo at 10 mg/kg [2, 7] [%] | change in vivo at 30 mg/kg [2, 8] [%] | change in vivo at 100 mg/kg [2, 9] [%] | change in vivo at 300 mg/kg [2, 10] [%] | LD50 at 72 h ([3]; oral, observed for 3 days) [mg/kg]
1 | COc1ccc(C(=O)N2CCCC2=O)cc1 [Aniracetam, reference compound] | 19 | 26 | 23 | 230 | 288 | 42 |  |  |  |  |  |  |  |  | 
2 | O=C1CCCN1C(=O)Nc1ccccc1 [Compound 1] |  |  |  |  |  |  | -15 | 15 | 39 | > 5000 | 360 | 623 | 367 | 230 | 
3 | COc1ccc(NC(=O)N2CCCC2=O)cc1 [Compound 2, 1-(4-methoxyphenylcarbamoyl)-2-pyrrolidinone] |  |  |  |  |  |  | 11 | 5 | 27 |  | 346 | 557 | 623 | 507 | > 5000
4 | O=C1CCCN1C(=O)Nc1ccc(Cl)cc1 [Compound 3] |  |  |  |  |  |  | 11 | 15 | 46 | > 2000 |  |  |  |  | 
5 | CN(C)c1ccc(NC(=O)N2CCCC2=O)cc1 [Compound 5] |  |  |  |  |  |  | -4 | 22 | 9 |  | 119 | 598 | 213 | 79 | < 5000
6 | COc1ccc(NC(=O)N2CCCC2=O)cc1OC [Compound 6] |  |  |  |  |  |  | 0 | -4 | 14 | > 5000 |  | 138 | 568 | 596 | 
7 | COc1cc(NC(=O)N2CCCC2=O)cc(OC)c1OC [Compound 7] |  |  |  |  |  |  | 4 | 11 | 66 | 5000 |  | -10 | 209 | 345 | 
8 | O=C1CCCN1C(=O)Nc1cccc2c1CCCC2 [Compound 8] |  |  |  |  |  |  | 30 | 25 | 20 | > 5000 | 125 | 531 | 490 | 414 | 
9 | O=C1CCCN1C(=O)Nc1ccncc1 [Compound 9] |  |  |  |  |  |  | 13 | 12 | 16 |  | -7 | 245 | 157 | 41 | < 5000
10 | O=C1CCCN1C(=O)Nc1nccs1 [Compound 10] |  |  |  |  |  |  | -4 | -1 | 35 | 5000 |  | 166 | 144 | 475 | 
11 | O=C1CC(O)CN1C(=O)Nc1ccccc1 (stereo not drawn) [Compound 11, 1-phenylcarbamoyl-4-hydroxy-2-pyrrolidinone] |  |  |  |  |  |  | 11 | 62 | 96 |  |  | 346 | 198 | 518 | 
12 | COc1ccc(NC(=O)N2CC(O)CC2=O)cc1 (stereo not drawn) [Compound 12] |  |  |  |  |  |  | 5 | 7 | 63 |  |  |  |  |  | 
13 | CC1CCN(C(=O)Nc2ccccc2)C1=O (stereo not drawn) [Compound 13] |  |  |  |  |  |  | 9 | 87 | 37 | > 2000 |  |  |  |  | 
14 | COc1ccc(NC(=O)N2CCC(C)C2=O)cc1 (stereo not drawn) [Compound 14, 3-methyl-1-(4-methoxyphenylcarbamoyl)-2-pyrrolidinone] |  |  |  |  |  |  | 9 | 26 | 34 |  |  | 75 | 6 | 1 | > 5000
15 | COc1ccc(NC(=O)N2C(=O)CCC2C)cc1 (stereo not drawn) [Compound 15] |  |  |  |  |  |  | -3 | -1 | 11 | > 5000 |  | 25 | 148 | 672 | 
16 | O=C1CCC(CO)N1C(=O)Nc1ccccc1 (stereo not drawn) [Compound 16, 5-hydroxymethyl-1-phenylcarbamoyl-2-pyrrolidinone] |  |  |  |  |  |  | 10 | 36 | 89 |  |  | 135 | 103 | 50 | 5000
